Test [1] relates to patients with psychogenic impotence. The following applies: patients on liquid sublingual apomorphine 10 mg and 20 mg.
Test [2] shares this test system. The following applies: nicotine e.g. by smoking.

`O=c1[nH]c2ccccc2n1CCCN1CCC(n2c(=O)[nH]c3cc(Cl)ccc32)CC1` [Domperidone]: in test [1], the “counteraction of apomorphine adverse effects (nausea, vomiting, diaphoresis, etc.)” value is given as “can be counteracted”. Also, the “counteraction of adverse effects of the 5 mg apomorphine dose (nausea, diaphoresis, etc.)” value in test [2] is recorded as “can be counteracted”.

For the molecule `CN1CCCC1c1cccnc1` (stereo not drawn) [nicotine], the “counteraction of adverse effects of the 5 mg apomorphine dose (nausea, diaphoresis, etc.)” value in test [2] was “can be counteracted”.

The record behind these values is patent US6566368B2, “Apomorphine-containing dosage form for ameliorating male erectile dysfunction” (Pentech Pharmaceuticals, Inc., priority 1994, dated 2003).
